Laboratory results reported in patent US20240132559A1, “COMPOSITIONS AND METHODS FOR MODULATING MYC EXPRESSION” (FLAGSHIP PIONEERING INNOVATIONS V, INC., priority 2020, published 2024).
Entries after “also recorded” stand apart in the source; their conditions may differ.

Columns and labels:
SK-HEP-1 cells = assay: JQ1 dose response viability with bi-cistronic ZF9-MQ1_ZF3-KRAB (CellTiter-GLO); type: cell-based; conditions: Homo sapiens, SK-HEP1, 72 h, SKHEP-1, 72-hour
Source text: (§1) This example evaluates the efficacy of bi-cistronic ZF9-MQ1_ZF3-KRAB in combination with JQ1 (BET inhibitor) in multiple HCC cell lines. […] Later generation BET inhibitors are currently being evaluated in the clinic for hematologic indications; however, their toxicity profile have limited their use. Combination treatments that can increase the potency of BET inhibitors at reduced dose levels could improve BET inhibitor tolerability.
(§2) To evaluate potential synergy between bi-cistronic ZF9-MQ1_ZF3-KRAB and JQ1, Hep 3B or SK-HEP-1 cells were plated in 96 well plates at 10,000 cells per well. Cells were then treated with JQ1 with a dose range between 0.1 and 25 μM, with serial dilution of 1:2. Lipid mix carrying bi-cistronic ZF9-MQ1_ZF3-KRAB was then added to a set of the wells at a dose of 0.1 or 0.6 μg/mL. A set of cells was treated with JQ1 alone to use as control. Following 72-hour treatment, cells were lysed with the CellTiter-GLO® reagent and luminescence was quantified using the Glo Max. Relative cell viability was calculated by averaging the untreated values and dividing each experimental luciferase value by that average.

Hep 3B cells = assay: as above; type: cell-based; conditions: Homo sapiens, Hep3B, 72 h
Source text: as §1, §2

A549 cells [1] = assay: A549 viability with ZF9-MQ1 and small molecule inhibitors, alone and combined; type: cell-based, human; conditions: each agent separately
A549 cells [2] = assay: A549 cell viability, ZF9-MQ1 alone and with BET or MEK inhibitors (CellTiter-GLO); type: cell-based, human; conditions: 72-hour incubation, single agent
Procedure: This example evaluates the effect of ZF9-MQ1 construct on A549 cell viability when used in combination with varying concentrations of JQ1 inhibitor.
(§3) A549 cells were seeded at 4,000 cells per well in duplicate plates for cell viability analysis. The 96-well plates were treated in triplicate with GFP or ZF9-MQ1 loaded LNPs at 0.5 ug/mL or 1.0 μg/mL in combination with increasing concentrations of the BET inhibitor JQ1 (concentrations up to 6.25 uM) and incubated. Untreated cells and GFP treated cells were used as controls. After 72-hour incubation, one 96-well plate was lysed with CellTiter-GLO® and luminescence was quantified using the GloMax® Discovery plate reader.
This example evaluates the effect of ZF9-MQ1 construct on A549 cell viability when used in combination with varying concentrations of BET762 inhibitor.
as §3, with “μg/mL” for “ug/mL”, “concentrations (concentrations up to 1.25 uM)” for “concentrations”, “BET762” for “JQ1 (concentrations up to 6.25 uM)”
This example evaluates the effect of ZF9-MQ1 construct on A549 cell viability when used in combination with varying concentrations of BET inhibitor, Birabresib.
as §3, with “μg/mL” for “ug/mL”, “concentrations (concentrations up to 0.625 uM for 0.5 μg/ml ZF9-MQ1 treated cells and up to 0.313 uM for 1.0 μg/ml ZF9-MQ1 treated cells)” for “concentrations”, “Birabresib” for “JQ1 (concentrations up to 6.25 uM)”
This example evaluates the effect of ZF9-MQ1 construct on A549 cell viability when used in combination with varying concentrations of MEK inhibitor, Trametinib.
as §3, with “μg/mL” for “ug/mL”, “concentrations” for “concentrations of the BET inhibitor JQ1”, “0.05” for “6.25”, “uM) of the MEK inhibitor Trametinib” for “uM)”, “Untreated cells and GFP treated cells were used as controls.” left out

SKHEP1 and Hep 3B cells = assay: IC50 of sorafenib or JQ1 in combination with bi-cistronic ZF9-MQ1_ZF3-KRAB; type: cell-based, human; conditions: with bi-cistronic ZF9-MQ1_ZF3-KRAB at 0.6 and 0.1 ug/ml
[3] = system: HCC cells (HepG2, Hep3B, SKHEP1, SNU-182, SNU-449); assay: Cell viability (CellTiter-GLO) of human HCC cell lines; type: cell-based; conditions: 72 and 168 hours
Source text: This example describes down-regulating MYC1 expression by targeting KRAB effector fused to zinc finger domains to the upstream region directly adjacent to the CTCF motif (GD-28859). In this example, zinc finger-directed KRAB effectors (ZF-KRAB effectors) were designed to bind the anchor site at the DNA region targeted by GD-28859 (FIG. 4A). 7 constructs (dCas-KRAB/GD-59, ZF1-KRAB, ZF2-KRAB, ZF3-KRAB, ZF4-KRAB, ZF5-KRAB, and ZF6-KRAB) were designed and screened in human HCC models (HepG2, Hep3B, SKHEP1). Negative controls for these experiments included untreated cells and dCas9-KRAB/GD-28859 was used as positive control. RNA was isolated from two independent experiments, each done in biological triplicate, using the Rneasy® Plus 96-well Kit (Qiagen) following the Manufacture's protocol. RNA samples were retrotranscribed to cDNA using LunaScript® RT SuperMix Kit (NEB) and analyzed by quantitative PCR (qPCR) (in technical triplicates) using a MYC specific Taqman primer/probe set assay with the TaqMan™ Fast Advanced Master Mix (Thermo Scientific). MYC expression was quantified relative to the expression of GAPDH reference genes using the ΔΔCt method, the untreated and dCas9(no-effector) samples were used as calibrators. Cell viability was assessed by ATP quantification using CellTiter-GLO® Luminescent Cell Viability Assay (Promega #G9241). […]

[4] = system: MYC super-enhancer and MYC promoter region; assay: Targeted bisulfite sequencing of super-enhancer and promoter regions in NCI-H2009; type: cell-based, human; conditions: guides 29833 and 29914, 72 hours
Procedure: The CRISPR-dCas9 system was modified by tethering it to epigenetic repressor: MQ1. These molecules modulate transcriptional repression methylating the CpG nucleotides of the DNA. The effector mRNA and super-enhancer guide RNAs (29833 and 29914) were co-delivered using LNP delivery with SSOP with mRNA delivery of GFP or a dCAS9-no effector construct (dCas9-NE) as negative controls. NCSLC cell line NCI-H2009 was seeded in a 6 well plates in growth media (˜100000 cells/well). LNP formulations (2.5 ug/ml) were then added to the cells to transfect the effector mRNA/guide RNA then incubated for 72 hours. DNA was isolated using Lucigen QuickExtract™ DNA extraction kit and methylated regions were determined using targeted bisulfite sequencing of the promoter and super-enhancer regions.

MYC = MYC mRNA expression by qPCR in human HCC cell lines after LNP transfection; type: cell-based; conditions: HepG2, Hep3B and SKHEP1
Procedure: In this example, dCas9-KRAB mRNA was delivered to human HCC cell lines (HepG2, Hep3B and SKHEP1) with individual sgRNA (Table 1 and FIG. 1A-B) targeting it to the CTCF motif (GD-28616), CTCF “anchor” site (GD-28859), or the MYC promoter (GD-28617). The effector mRNA and sgRNA were co-delivered using LNP delivery with SSOP. For controls, both (1) dCas9 (no effector) combined with sgRNA, and (2) untreated cells were used to assess changes. HCC cells were seeded in 96-well plates in growth media (5000 cell/well). LNP formulations (2-2.5 ug/ml) were then added to the cells to transfect the mRNA and sgRNA. All treatments were done in biological triplicate. Timepoints ranging from 24-168 hours were assessed for MYC expression and cell viability. RNA was isolated from four independent experiments using the RNeasy® plus 96-well Kit (Qiagen) following the Manufacture's protocol. RNA samples were retrotranscribed to cDNA using LunaScript® RT SuperMix Kit (NEB) and analyzed by quantitative PCR (qPCR) (in technical triplicates) using a MYC specific TaqMan™ primer/probe set assay with the TaqMan™ Fast Advanced Master Mix (Thermo Scientific). MYC expression was quantified relative to the expression of GAPDH reference genes using the ΔΔCt method. The untreated and dCas9(no-effector) samples were used as calibrators. […]

[5] = bi-cistronic ZF9-MQ1_ZF3-KRAB 0 μg/ml
[6] = bi-cistronic ZF9-MQ1_ZF3-KRAB 0.1 μg/ml
[7] = bi-cistronic ZF9-MQ1_ZF3-KRAB 0.6 μg/ml

## Cc1sc2c(c1C)C(c1ccc(Cl)cc1)=N[C@@H](CC(=O)OC(C)(C)C)c1nnc(C)n1-2 [JQ1]
SK-HEP-1 cells; [5]
  IC50: > 25000 nM
SK-HEP-1 cells; [6]
  IC50: 1900 nM
SK-HEP-1 cells; [7]
  IC50: 1100 nM
Hep 3B cells; [5]
  IC50: 6600 nM
Hep 3B cells; [6]
  IC50: 600 nM
Hep 3B cells; [7]
  IC50: 200 nM
A549 cells [1]
  inhibition of A549 cell viability, single agent: inhibited cell viability of A549 cells
A549 cells [2]
  A549 cell viability, each agent separately: inhibited cell viability
SKHEP1 and Hep 3B cells; Hep 3B
  IC50 of JQ1: reduced
SKHEP1 and Hep 3B cells; SKHEP1
  IC50 of JQ1: reduced

## dCas9-MQ1: dCas9 fused to MQ1, SEQ ID NO: 35
[3]; HepG2 and Hep3B
  effect on viability (in words): dramatically decreased viability
[3]; SK-HEP-1
  effect on viability (in words): minimally affected
[4]
  methylation of the distal promoter region: about 50%
MYC; 72 hours
  MYC mRNA down-regulation: 50-90%
MYC
  MYC expression down-regulation (in words): significantly greater effect on MYC expression than any of the human dCas9-DNMTs examined or dCas9-KRAB; also recorded: down-regulated MYC expression
